This is an account of results in US7202023B2 (priority 2000, dated 2007).

Test [1] has as its system panBCD operon (panB promoter). The test is described as follows: RNA (transcriptional) profiling of panB, panC, panD mRNA levels in treated bacterial cells. The format is cell-based, B. subtilis. To be noted: LB medium, 37° C.
Test [2] relates to B. subtilis reporter strain PY79(amy::PpanB::lacZ, cat). Kind of test: Minimum inhibitory concentration (MIC) in 96-well microtiter plate, OD600 after about 18 hours. To be noted: Bacillus subtilis. It is filed as cell-based. As for the experimental part:
The minimum inhibitory concentrations (MIC) for trimethoprim and sulfamethoxazole were determined for each of the reporter strains. To determine the MIC, a compound of interest (e.g., trimethoprim or sulfamethoxazole) was placed in a 96-well microtiter plate such that the concentration of the compound varies in various wells of the plate (e.g., by using a series of 2-fold dilutions of the compound). Approximately 5,000 cells from a logarithmically-growing culture (e.g., the B. subtilis strain PY79) in Luria broth were added to each well (e.g., in a volume of 50–80 μl). The plate then was incubated at 37° C. for approximately 18 hours. The OD600 was then read to measure cell growth in each well of the plate. The lowest concentration of the compound that leads to complete killing of the culture (i.e., the concentration of compound for which the OD600 nm is equal to a control well that contains only media and the test compound) is deemed the MIC for the particular compound and bacterial strain.

Another test concerns PABA uptake. To be noted: 14C-PABA, Herrington (1994) Anal Biochem 216:427–430; cited from earlier work.
Where [3] appears, read: 10 μg/ml trimethoprim, 90 minutes.

SMILES strings stand for the structures. Converted amounts (≈) assume the structure as drawn.

As to `Cc1cc(NS(=O)(=O)c2ccc(N)cc2)no1` [sulfamethoxazole], in test [1] (0.5 mg/ml sulfamethoxazole, 80 minutes), the “panD mRNA levels induced” value was 148 fold. For the same compound, the MIC in test [2] stood at 500 µg/mL (≈ 1970 µM).
`Nc1ccc(S(=O)(=O)Nc2nccs2)cc1` [sulfathiazole]: the PABA uptake entry in the test on PABA uptake is reported as “inhibited”.
Regarding `COc1cc(Cc2cnc(N)nc2N)cc(OC)c1OC` [trimethoprim], in test [1] (setting [3]), the “panB mRNA levels induced” value worked out at 10 fold, the “panC mRNA levels induced” value is 54 fold and the “panD mRNA levels induced” value was found to be 38 fold. This compound also displayed a minimum inhibitory concentration (MIC) in test [2] of 3 µg/mL (≈ 10.3 µM). In the test with PABA uptake, the PABA uptake result is “inhibited”.

As a reminder, the MIC is the smallest concentration in the dilution series that meets the test's criterion for growth inhibition.
